This note sets out measurements from PMC11232401, “Characterization of antimalarial activity of artemisinin-based hybrid drugs” (Antimicrobial Agents and Chemotherapy, 2024).

A short description of data set [1]: Quantification of hybrid 1 in uRBC-derived supernatants by HPLC and fluorescence. The format is in vitro ADME, human. As for the experimental part:
Each well of 96-well plates was filled with 125 µL drug (1000 nM) and 125 µL uninfected red blood cells (uRBC), which were mixed to obtain a final drug concentration of 500 nM and 2.5% or 1.0% hematocrit. The plates were incubated at 37°C in the standard gas mixture. After each time point (10 min, 6 h, and 24 h), supernatants were carefully harvested and stored at −80°C until use. Untreated uRBC incubated at the same times were used as negative controls, and DHA and AQ were employed as standard drugs. Next, supernatants were diluted in a complete medium in six different dilutions and were aliquoted in new plates. The antimalarial activity of these supernatants and freshly dissolved drugs was determined in an asynchronous parasite culture of P. falciparum (3D7, D10, and W2 strains) for 72 h using the same method described above, and parasite viability was assessed by the pLDH ([38]) and SYBR Green I ([41]) methods. […] Decay in drug concentration was estimated by using the normalized slope values calculated from linear regression fits using the slope values of a standard curve as reference. […]
To test the association between the antimalarial activity of hybrid 1 supernatants and chemical stability, the concentration of hybrid 1 in these supernatants was quantified by high-performance liquid chromatography (HPLC) and fluorescence in a microplate reader. The concentration of hybrid 1 remained constant under incubation with PBS over the analyzed time (Fig. 3E; Fig. S1). […] Moreover, we defined the slopes calculated from linear regression fits to accurately reflect the effective decay in drug concentration because peroxides could covalently bind to proteins present in the supernatant. […]
Figure S1: Quantification of hybrid LH70 (1) by fluorescence and HPLC in the uRBC-derived supernatants. […] The drug was quantified in the supernatant of the cell culture after the second and third steps of medium replacement and washing out. […] RFU = relative fluorescence units.

The test system of data set [2] is P. falciparum. Description: Parasite growth inhibition (cell potency). The format is cell-based. Particulars: Plasmodium falciparum; strain and exposure not stated at the place.

Turning to `COCCOCCOCCOCCn1c(-c2ccc(-n3cc(-c4ccc(OC5OC6OC7(C)CCC8C(C)CCC(C5C)C68OO7)cc4)nn3)cc2)nc2ccccc21` (stereo not shown) [Hybrid 1], the “concentration of hybrid 1 in supernatant at 24 h” value in data set [1] (uRBC hematocrit 2.5%, start 500 nM, HPLC) is on record as 256 nM. Further, the “Maximum rate of reduction of drug concentration between 10 min and 24 h, HPLC” value in data set [1] (uRBC supernatants, slopes of linear regression fits, HPLC) was 56.4%. In addition, the “Maximum rate of reduction of drug concentration between 10 min and 24 h, fluorescence microplate reader” value in data set [1] (uRBC supernatants, slopes of linear regression fits, fluorescence) turned out to be 65.4%.
With `C[C@H]1[C@@H](O)O[C@@H]2O[C@@]3(C)CC[C@H]4[C@H](C)CC[C@@H]1[C@@]24OO3` [DHA, dihydroartemisinin, reference compound], inhibition in data set [2] was half-maximal at 5 nM (IC50).
